Experimental data reported in patent US9896659B2, “Methods, kits, and compositions for stem cell self-renewal” (STOWERS INSTITUTE FOR MEDICAL RESEARCH, priority 2011, dated 2018).

How the values were obtained:
[1] = tested on: lethally irradiated (10 Gy) CD45.1^+ recipient mice; experiment: Transplantation of cultured sorted LSK Flk2^− cells into lethally irradiated recipients, donor engraftment; assay type: in vivo, mouse; details: 28-day cultures, 1000 re-sorted LSK Flk2^− cells + 2×10^5 competitor cells; peripheral blood 4 weeks post-transplant
Excerpt: Cells were harvested from the wells prior to transplantation by pipetting up and down several times before transferring to a fresh tube. Residual was then collected by adding more media and repeating. Cells were washed in DMEM (Invitrogen, Cat. No. 31053) without phenol red and added to the appropriate number of whole bone marrow rescue cells from a congenic donor (for 200,000 rescue cells+1,000 re-sorted LSK Flk2^− cells (FIGS. 3F-H) or the non-adherent product of 10 days culture of 100 LSK Flk2^− cultured cells (FIGS. 3I-K) per mouse as indicated). […]
Repopulation was measured at 4 weeks post-transplant by collection of peripheral blood, red blood cell lysis, and staining of CD45.1 (recipient) compared to CD45.2 (donor) engraftment using antibodies purchased from eBiosciences (FITC conjugated CD45.2 (Cat. No. 11-0454-85) and PE-Cy5 conjugated CD45.1 (Cat. No. 15-0453-82)). […] Multi-lineage reconstitution was determined by CD3, B220 (for lymphoid) and Gr1, Mac-1 (for myeloid), as described above.
Cells cultured for 28 days in (1) media, (2) media+BpV(pic), (3) media+CHIR99021 and (4) media+CHIR99021 (1 μM)+BpV(pic) (200 nM) were re-sorted for LSK Flk2^− cells. […] At 4 weeks post-transplant, peripheral blood was analyzed for donor (FIG. 3G) and multi-lineage (FIG. 3H) engraftment. […]

LSK Flk2^− cells [2] = experiment: Ex vivo culture of sorted LSK Flk2^− cells with GSK-3β and PTEN inhibitors, expansion by FACS; assay type: cell-based, mouse
Procedure: LSK or LSK Flk2^− cells were sorted into 96-well U-bottom tissue culture plates at 100 cells/well with 200 μl media/well. Cells were incubated at 37° C., 5% O2, 5% CO2 (balance N2) for the indicated number of days. One-half total volume of media (see Table 1, below for the base media) was carefully pipetted from the top and replaced with fresh media every other day.
One hundred LSK Flk2^− cells were sorted from wild-type (C57Bl/6) mice and cultured in (1) media, (2) media+1 μM CHIR99021 (a GSK-3β inhibitor, a gift from Dr. Sheng Ding), (3) media+200 nM Dipotassium Bis-peroxo(picolinato)oxovanadate (BpV(pic), a PTEN inhibitor, available from Calbiochem, Cat. No. 203705), (4) media+1 μM CHIR99021+200 nM BpV(pic), (5) media+200 nM Shikonin (also a PTEN inhibitor, available from Calbiochem, Cat. No. 565850), and (6) media+200 nM Shikonin+1 μM CHIR99021. (FIGS. 3B-C). Cells were cultured as described above. Cells were examined at 17 days of culture (FIG. 3B, original magnification 100×) and 23 days (FIG. 3C, original magnification 40×).
LSK Flk2^− cells at 28 days culture in the indicated media conditions were examined (FIG. 3D, original magnification 200×).
FACS analysis of 28 day LSK Flk2^− cells cultured in media+BpV(pic)+CHIR99021 (FIG. 3E) was performed. Cells were pre-gated on live, lineage negative cells.
Fold expansion of LSK Flk2^− cells after 28 days culture in (1) media, (2) media+BpV(pic), (3) media+CHIR99021, and (4) media+CHIR99021+BpV(pic) were analyzed.
Cells cultured for 9 days in (1) media, (2) media+BpV(pic) (200 nM), (3) media+CHIR99021 (100 nM), and (4) media+CHIR99021 (100 nM)+BpV(pic) (200 nM) were re-sorted for LSK Flk2^− cells, and fold expansion of LSK Flk2^− cells after 9 days culture in the indicated conditions was determined (FIG. 3I).
FACS analysis was performed on 9 day LSK Flk2^− cells cultured in media+BpV(pic) (200 nM)+CHIR99021 (100 nM) (FIG. 3J). Cells were pre-gated on live, lineage negative cells.

LSK Flk2^− cells [3] = experiment: 10-day culture of bone marrow MNCs with PI3K inhibitor, CHIR99021 or without insulin, expansion of LSK Flk2^− cells; assay type: cell-based, mouse
LSK Flk2^− cells [4] = experiment: 14-day ex vivo expansion of bone marrow MNCs in ST media with or without GSK3β inhibitor, FACS; assay type: cell-based, mouse; details: Tpo or SCF alone; data not shown
NSG recipients = experiment: Repopulation of NSG recipients by cultured human UCB cells; assay type: in vivo; details: STL media + 15 nM Decitabine, brief exposure; 12 weeks post-secondary transplant
Procedure: 600 HSCs (lineage negative, CD34^+, CD38^− cells) were sorted from human UCB and transplanted into sub-lethally irradiated (3.25 Gy) NSG recipients or cultured for 2 weeks in STL media prior to transplantation. MNCs containing 600 HSCs were also cultured equivalently and transplanted. The uncultured MNC group is not shown due to morbidity of transplant recipients.
MNCs were isolated from human UCB and cultured in STL media or STL media with the DNA methyltransferase inhibitor (DNMTi), Decitabine, added at the concentration of 15 nM. DNMTi was prepared fresh in DMSO and added 12 hours after the start of the culture. Media containing Decitabine was replaced with freshly prepared media every 24 hours two more times. 72 hours after adding Decitabine initially, Decitabine was removed from the culture.
For the transplant experiments, MNCs isolated from human UCB were cultured in media activating the PI3K/Akt pathway (ST media), ST media with StemRegenin1 (SR1), media activating both the PI3K/Akt and Wnt/β-catenin pathways (STL media), or STL media+DNMTi for 14 days. The cultured progeny of 2×10^5 MNCs per recipient were transplanted into sub-lethally irradiated (3.25 Gy) NSG recipients. […] 12 weeks post-secondary transplant, human donor cells repopulation was determined (FIG. 36B).

[5] = tested on: Lin^−, CD34^+, CD38^− cells; experiment: Long-term ex vivo culture of human umbilical cord blood MNCs, Lin^− CD34^+ CD38^− cells by flow cytometry; assay type: cell-based; details: 6 weeks culture in STL media; 500 nM 5-Aza-2′-deoxycytidine or 1 μM SR1; relative to STL base media
Procedure: Cells were cultured in STL media, which consists of the following: StemSpan SFEM media (Stem Cell Technologies, Vancouver, Canada) supplemented with 10 μg/ml heparin (Sigma, St. Louis, Mo.), 0.5× Penicillin/Streptomycin (Sigma, St. Louis, Mo.), 10 ng/ml recombinant human (rh) SCF, 20 ng/ml rh-Tpo (Biovision, Inc., Mountain View, Calif.), and 2 mM lithium chloride (LiCl).
Mononuclear cells (MNCs) were isolated from human umbilical cord blood (UCB) and cultured in STL media (activating both Wnt/β-catenin and PI3K/Akt signaling), STL+StemRegenin1 (SR1), or STL+DNMT inhibitor (DNMTi) and analyzed by flow cytometry. […] 1 μM SR1 (Cellagen Technologies, San Diego, Calif.) or 500 nM of DNMTi (5-Aza-2′-deoxycytidine, A3656, Sigma, St. Louis, Mo.) was added where indicated. DNMTi was prepared fresh in DMSO and added from the start of the culture. 24 hours later, about 75% of media was changed using fresh DNMT inhibitor. 60 hours after culture began, no additional DNMT inhibitor was added during media changes.

Compound: Dipotassium Bis-peroxo(picolinato)oxovanadate [BpV(pic)]
- Mice showing >1% engraftment [1]: 0/10
- Expansion of LSK cells compared to control (photographs) (LSK Flk2^− cells [2]; 17 and 23 days culture, 1 μM CHIR99021, 200 nM BpV(pic)): greater expansion of LSK cells
- Expansion of LSK Flk2^− cells compared to media without inhibitor (LSK Flk2^− cells [2]; 28 days culture): significant expansion

Compound: Cn1c(=O)n(-c2ccc(C(C)(C)C#N)cc2)c2c3cc(-c4cnc5ccccc5c4)ccc3ncc21 [NVP-BEZ235]
- Effect on the ability of CHIR99021 to enhance expansion (LSK Flk2^− cells [3]; 10 days culture with 250 nM CHIR99021 plus PI3K inhibitor): ability of CHIR99021 to enhance expansion was negated by PI3K inhibition
- Expansion of LSK Flk2^− cells (LSK Flk2^− cells [3]; 10 days culture, 250 nM CHIR99021, NVP-BEZ235 at indicated concentrations): decreased the ability of LSK Flk2^− cells to expand in a dose-dependent manner

Compound: Tpo: recombinant Thrombopoietin, cytokine
- HSC expansion with a single cytokine alone (LSK Flk2^− cells [4]): could not expand HSCs in culture

Compound: insulin: recombinant human insulin in StemSpan media, a major stimulator of the PI3K/Akt pathway
- Dependence of phenotypic HSC expansion on medium component (LSK Flk2^− cells [3]; ST media with or without insulin, 10 days): expansion of phenotypic HSCs is dependent on insulin

Compound: Nc1ncn([C@H]2C[C@H](O)[C@@H](CO)O2)c(=O)n1 [Decitabine, 5-Aza-2′-deoxycytidine]
- Expansion of functional, primitive human HSCs in serial transplant recipients (NSG recipients): further enhanced
- Human UCB-derived HSC expansion in long-term ex vivo culture [5]: human UCB-derived HSC expansion is enhanced

Compound: SCF: recombinant Stem Cell Factor, cytokine
- HSC expansion with a single cytokine alone (LSK Flk2^− cells [4]): could not expand HSCs in culture

Compound: CC(C)n1cnc2c(NCCc3ccc(O)cc3)nc(-c3csc4ccccc34)nc21 [SR1]
- Human UCB-derived HSC expansion in long-term ex vivo culture [5]: did not enhance overall HSC expansion in long-term cultures
